The values that follow come from patent US9023789B2, “Amylin analogs and pharmaceutical compositions thereof” (Novo Nordisk A/S, priority 2012, dated 2015).

A short description of data set [1]: ASSAY (III) ThT fibrillation assay for physical stability. In kind it is physicochemical. Put shortly:
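Physical stability scored by ThT fluorescence (444 nm excitation, 485 nm emission) tracked every 20 min during 37 °C incubation with 960 rpm shaking, ThT at 1 μM final. Values are replicate means with SD at chosen times; HPLC against pramlintide standard gives initial and post-assay soluble concentrations.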

In data set [2] the target is T1, rat amylin receptor (rat calcitonin receptor + rat RAMP 3) (Rattus norvegicus, UniProt P32214+Q9JJ73).
T1 construct: expressed in transfected cells; host or cells: BHK tk'ts 13 (transient, FuGENE 6), membranes
T1 sequence (P32214 25-479 isoform P32214-2 limits assumed): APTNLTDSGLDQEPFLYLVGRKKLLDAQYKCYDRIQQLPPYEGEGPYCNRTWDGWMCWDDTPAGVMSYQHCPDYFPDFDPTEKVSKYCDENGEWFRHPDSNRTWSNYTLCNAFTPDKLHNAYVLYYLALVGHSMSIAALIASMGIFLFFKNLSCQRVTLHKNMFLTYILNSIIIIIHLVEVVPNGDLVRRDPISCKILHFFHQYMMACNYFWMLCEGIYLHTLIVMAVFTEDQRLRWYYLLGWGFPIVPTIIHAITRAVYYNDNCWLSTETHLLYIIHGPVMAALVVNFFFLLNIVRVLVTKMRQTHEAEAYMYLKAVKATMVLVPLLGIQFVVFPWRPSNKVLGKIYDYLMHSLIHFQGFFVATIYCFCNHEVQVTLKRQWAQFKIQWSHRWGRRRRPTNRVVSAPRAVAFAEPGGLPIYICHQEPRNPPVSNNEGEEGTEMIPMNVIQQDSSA
T1 sequence (Q9JJ73 23-147 partner): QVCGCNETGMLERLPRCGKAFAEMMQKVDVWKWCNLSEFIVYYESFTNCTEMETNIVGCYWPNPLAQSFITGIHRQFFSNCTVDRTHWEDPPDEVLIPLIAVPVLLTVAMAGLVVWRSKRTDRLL
In words: ASSAY (VI) binding to the rat amylin receptor. The conditions noted are these: for IC50: binding to rat amylin receptor, read-out: rAmylin-R bind IC50. Put shortly: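 Membranes for this rat amylin receptor binding assay came from BHK tk′ts 13 cells. The cells were transiently transfected with rat calcitonin receptor using the FuGENE® 6 reagent from Roche, as the manufacturer recommends. The cells were collected approximately 48 hours after transfection, and membranes were then prepared.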

The mark [3] stands for this setting: Table 7, rat binding selectivity, rCTR IC50 / rAmylin-R IC50.
Where [4] appears, read: Table 7a (preferred compounds), rat binding selectivity, rCTR IC50 / rAmylin-R IC50.
[5] abbreviates: ratio of rCTR bind IC50 to rAmylin-R bind IC50.

Numbered stars: 1 amine (or outer) side, 2 acyl side, 3 side chain; on linkers, the order of the positions; unused ones are H or OH. Bridge positions count the residues as written; N and C are the ends. Side chains are listed from the residue outwards. Peptide text beside a SMILES is read from it. * marks the point of attachment. C20 diacid = O=C(O)CCCCCCCCCCCCCCCCCCC(=O)*; γGlu = O=C(O)[C@H](CCC(=O)[*:2])N[*:1]

With `CC[C@H](C)[C@H](NC(=O)[C@H](C)NC(=O)CNC(=O)[C@H](Cc1ccccc1)NC(=O)[C@H](CC(N)=O)NC(=O)[C@@H]1CCCN1C(=O)[C@H](CO)NC(=O)[C@H](CO)NC(=O)[C@H](Cc1c[nH]cn1)NC(=O)[C@H](CCCNC(=N)N)NC(=O)[C@H](CC(C)C)NC(=O)[C@H](Cc1ccccc1)NC(=O)[C@H](CCC(=O)O)NC(=O)[C@H](C)NC(=O)[C@H](CC(C)C)NC(=O)[C@H](CCCNC(=N)N)NC(=O)[C@H](CCC(N)=O)NC(=O)[C@@H](NC(=O)[C@H](C)NC(=O)[C@@H]1CSSC[C@H](NC(=O)[C@@H](N)CCCCNC(=O)CC[C@H](NC(=O)CCCCCCCCCCCCCCCCCCC(=O)O)C(=O)O)C(=O)N[C@@H](CC(N)=O)C(=O)N[C@@H]([C@@H](C)O)C(=O)N[C@@H](C)C(=O)N[C@@H]([C@@H](C)O)C(=O)N1)[C@@H](C)O)C(=O)N1CCC[C@H]1C(=O)N[C@@H](CO)C(=O)N[C@@H](CO)C(=O)N[C@H](C(=O)N[C@@H](CC(N)=O)C(=O)N[C@H](C(=O)NCC(=O)N[C@@H](CCCNC(=N)N)C(=O)N[C@@H](CCC(=O)O)C(=O)N[C@H](C(=O)N[C@@H](Cc1ccc(O)cc1)C(N)=O)[C@@H](C)O)C(C)C)[C@@H](C)O` [Example 108] (H-K([γGlu-C20 diacid])CNTATCATQRLAEFLRHSSPNFGAIPSSTNVGRETY-NH2; disulfide 2-7; N-terminus assumed), the “ThT pH 4.0 lag time (h)” value in data set [1] worked out at 45 h. Moreover, the half-inhibitory concentration (IC50) in data set [2] (Table 7) came out at 1.06 nM. For the same compound, the “Ratio rCT/rAmylin binding” value in data set [2] (setting [3]), in data set [2] (setting [4]) and in data set [2] (setting [5]) was 81.1 each time.

Take `CC[C@H](C)[C@H](NC(=O)[C@H](C)NC(=O)CNC(=O)[C@H](Cc1ccccc1)NC(=O)[C@H](CC(N)=O)NC(=O)[C@@H]1CCCN1C(=O)[C@H](CO)NC(=O)[C@H](CO)NC(=O)[C@H](Cc1c[nH]cn1)NC(=O)[C@H](CCCNC(=N)N)NC(=O)[C@H](CC(C)C)NC(=O)[C@H](Cc1ccccc1)NC(=O)[C@H](CCC(=O)O)NC(=O)[C@H](C)NC(=O)[C@H](CC(C)C)NC(=O)[C@H](CCCNC(=N)N)NC(=O)[C@H](CCC(N)=O)NC(=O)[C@@H](NC(=O)[C@H](C)NC(=O)[C@@H]1CSSC[C@H](NC(=O)[C@H](CCCCN)NC(=O)CC[C@H](NC(=O)CCCCCCCCCCCCCCCCCCC(=O)O)C(=O)O)C(=O)N[C@@H](CC(N)=O)C(=O)N[C@@H]([C@@H](C)O)C(=O)N[C@@H](C)C(=O)N[C@@H]([C@@H](C)O)C(=O)N1)[C@@H](C)O)C(=O)N1CCC[C@H]1C(=O)N[C@@H](CO)C(=O)N1CCC[C@H]1C(=O)N[C@H](C(=O)N[C@@H](CC(N)=O)C(=O)N[C@H](C(=O)NCC(=O)N[C@@H](CO)C(=O)N[C@@H](CC(N)=O)C(=O)N[C@H](C(=O)N[C@@H](Cc1ccc(O)cc1)C(N)=O)[C@@H](C)O)C(C)C)[C@@H](C)O` [Example 37] ({C20 diacid-γGlu}-KCNTATCATQRLAEFLRHSSPNFGAIPSPTNVGSNTY-NH2; disulfide 2-7 (inferred)): the “ThT pH 4.0 lag time (h)” value in data set [1] is 15 h. Besides, the half-maximal inhibitory concentration (IC50) in data set [2] (Table 7) was 0.514 nM. The “Ratio rCT/rAmylin binding” value in data set [2] (setting [3]) and in data set [2] (setting [4]) was 14.3 throughout.

Regarding `CC[C@H](C)[C@H](NC(=O)[C@H](C)NC(=O)CNC(=O)[C@H](Cc1ccccc1)NC(=O)[C@H](CC(N)=O)NC(=O)[C@@H]1CCCN1C(=O)[C@H](CO)NC(=O)[C@H](CO)NC(=O)[C@H](Cc1c[nH]cn1)NC(=O)[C@H](CCCNC(=N)N)NC(=O)[C@H](CC(C)C)NC(=O)[C@H](Cc1ccccc1)NC(=O)[C@H](CCC(=O)O)NC(=O)[C@H](C)NC(=O)[C@H](CC(C)C)NC(=O)[C@H](CCCNC(=N)N)NC(=O)[C@H](CCC(N)=O)NC(=O)[C@@H](NC(=O)[C@H](C)NC(=O)[C@@H]1CSSC[C@H](NC(=O)[C@H](CCCCN)NC(=O)CC[C@H](NC(=O)CCCCCCCCCCCCCCCCCCC(=O)O)C(=O)O)C(=O)N[C@@H](CC(N)=O)C(=O)N[C@@H]([C@@H](C)O)C(=O)N[C@@H](C)C(=O)N[C@@H]([C@@H](C)O)C(=O)N1)[C@@H](C)O)C(=O)N1CCC[C@H]1C(=O)N[C@@H](CO)C(=O)N[C@@H](CO)C(=O)N[C@H](C(=O)N[C@@H](CC(N)=O)C(=O)N[C@H](C(=O)NCC(=O)N[C@@H](Cc1c[nH]cn1)C(=O)N[C@@H](CC(N)=O)C(=O)N[C@H](C(=O)N[C@@H](Cc1ccc(O)cc1)C(N)=O)[C@@H](C)O)C(C)C)[C@@H](C)O` [Example 17] ({C20 diacid-γGlu}-KCNTATCATQRLAEFLRHSSPNFGAIPSSTNVGHNTY-NH2; disulfide 2-7 (inferred)), in data set [1], the “ThT pH 4.0 lag time (h)” value turned out to be 45 h. Also, in data set [2] (Table 7), the concentration for half-maximal inhibition (IC50) stood at 2.71 nM. The “Ratio rCT/rAmylin binding” value in data set [2] (setting [3]), in data set [2] (setting [4]) and in data set [2] (setting [5]) was 35.9 in each case.

`CC[C@H](C)[C@H](NC(=O)[C@H](C)NC(=O)CNC(=O)[C@H](Cc1ccccc1)NC(=O)[C@H](CC(N)=O)NC(=O)[C@@H]1CCCN1C(=O)[C@H](CO)NC(=O)[C@H](CO)NC(=O)[C@H](Cc1c[nH]cn1)NC(=O)[C@H](CCCNC(=N)N)NC(=O)[C@H](CC(C)C)NC(=O)[C@H](Cc1ccccc1)NC(=O)[C@H](CC(N)=O)NC(=O)[C@H](C)NC(=O)[C@H](CC(C)C)NC(=O)[C@H](CCCNC(=N)N)NC(=O)[C@H](CCC(N)=O)NC(=O)[C@@H](NC(=O)[C@H](C)NC(=O)[C@@H]1CSSC[C@H](NC(=O)[C@H](CCCCN)NC(=O)COCCOCCNC(=O)COCCOCCNC(=O)CC[C@H](NC(=O)CCCCCCCCCCCCCCCCCCC(=O)O)C(=O)O)C(=O)N[C@@H](CC(N)=O)C(=O)N[C@@H]([C@@H](C)O)C(=O)N[C@@H](C)C(=O)N[C@@H]([C@@H](C)O)C(=O)N1)[C@@H](C)O)C(=O)N1CCC[C@H]1C(=O)N[C@@H](CO)C(=O)N[C@@H](CO)C(=O)N[C@H](C(=O)N[C@@H](CC(N)=O)C(=O)N[C@H](C(=O)NCC(=O)N[C@@H](CO)C(=O)N[C@@H](CC(N)=O)C(=O)N[C@H](C(=O)N[C@@H](Cc1ccc(O)cc1)C(N)=O)[C@@H](C)O)C(C)C)[C@@H](C)O` [Example 24]: in data set [1], the “ThT pH 4.0 lag time (h)” value came to 34 h. For the same compound, the half-inhibitory concentration (IC50) in data set [2] (Table 7) was 3.01 nM. The “Ratio rCT/rAmylin binding” value in data set [2] (setting [3]), in data set [2] (setting [4]) and in data set [2] (setting [5]) was 116.3 each time.

Take `CC[C@H](C)[C@H](NC(=O)[C@H](C)NC(=O)CNC(=O)[C@H](Cc1ccccc1)NC(=O)[C@H](CC(N)=O)NC(=O)[C@@H]1CCCN1C(=O)[C@H](CO)NC(=O)[C@H](CO)NC(=O)[C@H](Cc1c[nH]cn1)NC(=O)[C@H](CCCNC(=N)N)NC(=O)[C@H](CC(C)C)NC(=O)[C@H](Cc1ccccc1)NC(=O)[C@H](CCC(=O)O)NC(=O)[C@H](C)NC(=O)[C@H](CC(C)C)NC(=O)[C@H](CCCNC(=N)N)NC(=O)[C@H](CCC(N)=O)NC(=O)[C@@H](NC(=O)[C@H](C)NC(=O)[C@@H]1CSSC[C@H](NC(=O)[C@@H](N)CCCCNC(=O)CC[C@H](NC(=O)CC[C@H](NC(=O)CCCCCCCCCCCCCCCCCCC(=O)O)C(=O)O)C(=O)O)C(=O)N[C@@H](CC(N)=O)C(=O)N[C@@H]([C@@H](C)O)C(=O)N[C@@H](C)C(=O)N[C@@H]([C@@H](C)O)C(=O)N1)[C@@H](C)O)C(=O)N1CCC[C@H]1C(=O)N[C@@H](CO)C(=O)N[C@@H](CO)C(=O)N[C@H](C(=O)N[C@@H](CC(N)=O)C(=O)N[C@H](C(=O)NCC(=O)N1CCC[C@H]1C(=O)N[C@@H](CCCNC(=N)N)C(=O)N[C@H](C(=O)N[C@@H](Cc1ccc(O)cc1)C(N)=O)[C@@H](C)O)C(C)C)[C@@H](C)O` [Example 110] (H-K([γGlu-γGlu-C20 diacid])CNTATCATQRLAEFLRHSSPNFGAIPSSTNVGPRTY-NH2; disulfide 2-7): the “ThT pH 4.0 lag time (h)” value in data set [1] stood at 17 h. Moreover, the half-maximal inhibitory concentration (IC50) in data set [2] (Table 7) came out at 0.339 nM. The “Ratio rCT/rAmylin binding” value in data set [2] (setting [3]), in data set [2] (setting [4]) and in data set [2] (setting [5]) was 112.9 each time.

What is called IC50 is the concentration that inhibits the measured activity by half.
